{
  "source": "patent US7138147B2",
  "about": "“Arsenic sulfide compounds and derivatives thereof for the treatment of malignancies” (priority 1998, dated 2006)",
  "key": {"refractory APL": {"system": "refractory APL", "settings": "intravenous 10 mg/day for 4–9 weeks; cited from earlier work"}, "NB4 cells": {"system": "NB4 cells", "settings": "in vitro, APL cell line; cited from earlier work"}, "[1]": {"assay": "Solubility of As4S4 in solvents", "type": "physicochemical", "settings": "polyvinylpyrrolidone, pyrrolidone, alcohol, ether, di-sodium hydrophosphate, mercaptopurine, sodium bicarbonate; various concentrations", "procedure": "In other experiments, a number of solvents, such as polyvinylpyrrolidone, pyrrolidone, alcohol, ether, di-sodium hydrophosphate, mercaptopurine and sodium bicarbonate, were tested to increase solubility of As4S4. […] Accordingly, As4S4 solubilized in the above solvents is useful for intravenous administration."}, "[2]": {"system": "chronic myeloid leukemia (CML)", "assay": "Case study 3: chronic myeloid leukemia patient", "type": "in vivo, human", "settings": "case study 3, 0.6 gram twice daily", "procedure": "A person was diagnosed as having chronic myeloid leukemia (CML) in February, 1959. […] Initially, they were treated with Myleran. On Jan. 20, 1960, the white blood cell count was […] showing a differential count of 11% promyelocyte and myelocyte. […] Patient was given 0.6 gram of arsenic disulfide twice daily. While being treated, blood and bone marrow pictures were controlled. The patient died, on Sep. 5, 1965 from infection unrelated to the arsenic sulfide treatment."}, "[3]": {"settings": "EPA/600/8-91/061; cited from earlier work"}, "[4]": {"assay": "Side effects of arsenic disulfide treatment in patients", "type": "in vivo, human", "text": "(§1) Newly diagnosed, or relapsing patients are given a different protocol of treatment than are those patients who are in current remission. […] Preferably the dose given will range from approximately 0.5 to approximately 0.75 gram of arsenic disulfide. This equates to 2 to 3 capsules, according to the above formulation, by mouth for one dose. After the initial three days, the patient is given the compound three times daily until remission is induced. To prevent complications due to the potential build up of arsenic in the body, treatment should not exceed 100 days. In most cases, favorable response should be induced before forty days of treatment. These later doses may be somewhat reduced in amount compared to the original three day dosages. […] At this point, the patient should be reevaluated through testing, and allowed to rest before beginning another course of treatment according to the present protocol.\n(§2) The patient then abstains from treatment for a set period of time. During this time, the patient is tested. Treatment is adjusted according to test results with the period of abstention lasting from two weeks to 100 days, depending upon results. The length of the maintenance procedure varies according to patients' conditions, and may last as long as 3 years (including treating and resting periods). Each dose during this phase of treatment preferably contains arsenic disulfide in the range of approximately 0.50 to 0.75 gram. Once again the preferred method of administration is orally through use of a capsule as described above. Usually, a maintenance treatment is divided into two stages.\n(§3) Exclusion criteria for the study included history of hypersensitivity to arsenic compounds, previous treatment with arsenic-containing medications, patient in critical condition, excessively low or high white blood counts, existing heart, liver or kidney conditions, and severe infection. Three patients were excluded on these grounds, leaving 48 patients in the study. All 48 cases were treated with arsenic disulfide according to the above protocol. ATRA or other cytotoxic agents were not used. All 48 patients are living and Leukemia free as of April, 1998.\nSide effects of treatment with arsenic disulfide are minimal when compared to those of other antineoplastic agents. Potential side effects include loss of appetite, mild diarrhea, and transient reversible increase of aspartate aminotransferase (AST). A minority of patients experienced cutaneous itching or puffing of the eyelids, and mild leukopenia occurred slowly in 34% of patients. One patient had thrombocytopenia without bleeding. There were no deaths associated with the use of arsenic sulfide."}, "[5]": {"system": "acute promyelocytic leukemia (APL)", "assay": "Clinical treatment of APL patients with arsenic disulfide", "type": "in vivo, human", "text": "as §1, §2\nAll patients who make up a part of the case studies have been diagnosed with APL on the basis of cell morphology of AML-M3, that is acute hypergranular promyelocytic leukemia, immunological cell markers, chromosomal analysis showing (15;17) translocation, and positive PML/RARα mRNA expression. Some patients were referred to the study with a diagnosis based solely on pathologic changes in cell morphology; these patients' diagnoses were tracked and reconfirmed throughout the study. Chronic myeloid leukemia and lymphoma patients have also benefitted from arsenic disulfide treatment, as illustrated by case studies 3 and 4.\nFifty-one patients met the inclusion criteria for the study.\nas §3"}, "non-Hodgkin's lymphoma": {"system": "non-Hodgkin's lymphoma", "assay": "Case study 4: non-Hodgkin's lymphoma patient", "type": "in vivo, human", "settings": "case study 4, resistant to conventional anticancer treatment; since March, 1998", "text": "as §1\nA person diagnosed with non-Hodgkin's lymphoma in September 1996 was treated with a combination chemotherapy regimen and had cranial irradiation for meningeal lymphoma. They also had high dose chemo-radiotherapy for autologous stem cell transplant. The patient has several relapses including intracranial relapse and a large amount of lymphoma cells in peripheral blood with typical clinical and laboratory features of lymphoma/leukemia. […]"}, "[6]": {"settings": "in vivo; cited from earlier work"}},
  "data": [
    {"compound": "arsenic trioxide", "values": [
      {"measurement": "patients with complete morphologic remission", "setting": "refractory APL", "value": "14 of 15"},
      {"measurement": "apoptosis (programmed cell death)", "setting": "NB4 cells", "value": "induced apoptosis"}
    ]},
    {"compound": "S1[As]2S[As]3S[As]2S[As]13", "note": "[arsenic disulfide]", "values": [
      {"measurement": "solubility in solvents", "setting": "[1]", "value": "soluble"},
      {"measurement": "blood and bone marrow pictures", "setting": "[2]", "value": "controlled"},
      {"measurement": "carcinogenicity classification", "setting": "[3]", "value": "human carcinogens"},
      {"measurement": "deaths associated with use", "setting": "[4]; human, in vivo", "value": "no deaths"},
      {"measurement": "thrombocytopenia without bleeding", "setting": "[4]; human, in vivo", "value": "One patient"},
      {"measurement": "mild leukopenia, incidence", "setting": "[4]; occurred slowly", "value": "34 % of patients"},
      {"measurement": "side effects compared to other antineoplastic agents", "setting": "[4]; patients", "value": "minimal"},
      {"measurement": "time to complete remission level", "setting": "[5]; case study 1", "value": 36, "unit": "days"},
      {"measurement": "blast cells and leukemic promyelocytes", "setting": "[5]; case study 1, Aug. 28, 1997", "value": "less than 5%"},
      {"measurement": "hemoglobin and platelet levels", "setting": "[5]; case study 1, FIG. 1", "value": "marked increase"},
      {"measurement": "blasts and white blood cells", "setting": "[5]; case study 1, FIG. 2", "value": "dramatic decrease"},
      {"measurement": "clinical outcome", "setting": "[5]; case study 1, newly diagnosed APL", "value": "complete remission"},
      {"measurement": "blasts and white blood cells", "setting": "[5]; case study 2, FIG. 4", "value": "dramatic change"},
      {"measurement": "clinical outcome", "setting": "[5]; case study 2, relapsed APL, treated 21 days", "value": "complete remission"},
      {"measurement": "patients living and leukemia free", "setting": "[5]; of 48 APL patients treated, as of April, 1998, no ATRA or cytotoxic agents", "value": 48, "unit": "patients"},
      {"measurement": "patients attaining complete remission after one course of treatment", "setting": "[5]; of ten newly diagnosed or relapsed patients", "value": "Eight"},
      {"measurement": "markers indicating residual leukemia cells after maintenance protocol", "setting": "[5]; patients in complete remission before treatment with positive markers", "value": "persistently negative"},
      {"measurement": "patients alive and remaining in complete remission, leukemia free", "setting": "[5]; ten newly diagnosed or relapsed patients", "value": "All ten"},
      {"measurement": "clinical outcome", "setting": "non-Hodgkin's lymphoma", "value": "in remission"}
    ]},
    {"compound": "S=[As]S[As]=S", "note": "(stereo not drawn) [arsenic trisulfide]", "values": [
      {"measurement": "tumorigenicity", "setting": "[6]", "value": "inconclusive"},
      {"measurement": "carcinogenicity classification", "setting": "[3]", "value": "human carcinogens"}
    ]},
    {"compound": "calcium arsenate [reference compound]", "values": [
      {"measurement": "tumorigenicity", "setting": "[6]", "value": "tumorigenic"}
    ]}
  ]
}
